Laboratory results taken from patent EP4122499A1, “FIBROBLAST ACTIVATION PROTEIN INHIBITORS AND USE THEREOF” (3B Pharmaceuticals GmbH, priority 2021, dated 2023).

Biological target: T1, Human recombinant FAP (Homo sapiens, UniProt Q12884)
T1 sequence (Q12884 1-760): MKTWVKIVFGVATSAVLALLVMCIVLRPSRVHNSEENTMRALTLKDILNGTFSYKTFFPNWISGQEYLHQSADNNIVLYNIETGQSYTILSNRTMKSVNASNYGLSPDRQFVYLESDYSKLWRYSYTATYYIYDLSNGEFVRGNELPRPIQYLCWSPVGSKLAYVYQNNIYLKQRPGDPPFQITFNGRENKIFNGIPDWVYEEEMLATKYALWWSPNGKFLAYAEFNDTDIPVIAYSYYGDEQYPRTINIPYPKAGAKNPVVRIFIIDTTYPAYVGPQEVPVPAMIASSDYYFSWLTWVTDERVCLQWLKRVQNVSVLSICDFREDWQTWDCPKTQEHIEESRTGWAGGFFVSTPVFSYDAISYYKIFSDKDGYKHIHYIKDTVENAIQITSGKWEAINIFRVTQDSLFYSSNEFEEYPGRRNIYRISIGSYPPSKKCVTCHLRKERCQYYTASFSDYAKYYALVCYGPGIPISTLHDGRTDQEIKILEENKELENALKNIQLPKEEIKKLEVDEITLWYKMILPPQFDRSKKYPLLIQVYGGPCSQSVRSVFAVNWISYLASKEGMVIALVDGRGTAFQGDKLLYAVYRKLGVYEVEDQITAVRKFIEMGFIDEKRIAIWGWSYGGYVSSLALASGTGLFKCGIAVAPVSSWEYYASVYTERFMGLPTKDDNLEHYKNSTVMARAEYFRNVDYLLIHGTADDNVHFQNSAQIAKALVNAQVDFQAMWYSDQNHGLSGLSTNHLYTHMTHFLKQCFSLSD
Experiment: Surface plasmon resonance assay (Biacore T200, single cycle kinetics)
Assay type: binding
Settings: SPR, 25°C; for pKD (Biacore) / Kd: 1:1 Langmuir binding model; for HL [min] (Biacore): half-life; for Kd: read-out: pKD (Biacore) (converted)
Procedure, shortened: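 Human recombinant FAP (20 µg/mL) was captured on anti-FAP antibody immobilized on a CM5 chip, and compounds were run in single-cycle kinetics at 25 °C in HBST with 0.1% DMSO, starting from 500 nM. Sensorgrams were corrected against a reference flow cell and for baseline drift. kon, koff, KD and t1/2 came from a 1:1 Langmuir fit, with pKD = −log KD.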

pKD (Biacore)	HL [min] (Biacore)	Kd	SMILES
>11	>500 min		O=C(O)CN1CCN(CC(=O)O)CCN(CC(=O)N2CCN(CCCOc3ccc4nccc(C(=O)NCC(=O)N5CCC[C@H]5C(=O)c5nc6ccccc6o5)c4c3)CC2)CCN(CC(=O)O)CC1 [drawing 357]
	0.3 min	3.98 nM	O=C(NCC(=O)N1CCC[C@H]1C(=O)c1nc2ccccc2s1)c1ccnc2ccccc12
10.1	289.5 min		O=C(O)CN1CCN(CC(=O)O)CCN(CC(=O)N2CCN(CCNC(=O)c3cccc(-c4ccc5nccc(C(=O)NCC(=O)N6CCC[C@H]6C(=O)c6nc7ccccc7o6)c5c4)c3)CC2)CCN(CC(=O)O)CC1 [drawing 353]
9	4.8 min		O=C(O)CN1CCN(CC(=O)O)CCN(CC(=O)N2CCN(CCNC(=O)c3ccc(-c4ccc5nccc(C(=O)NCC(=O)N6C[C@@H](F)C[C@H]6C(=O)c6nc7ccccc7o6)c5c4)cc3)CC2)CCN(CC(=O)O)CC1 [drawing 360]
9.1	10.5 min		O=C(O)CN1CCN(CC(=O)O)CCN(CC(=O)N2CCN(CCNC(=O)c3ccc(-c4ccc5nccc(C(=O)NCC(=O)N6CCC[C@H]6C(=O)c6nc7ccccc7o6)c5c4)cc3)CC2)CCN(CC(=O)O)CC1 [drawing 354]
	2.5 min	0.398 nM	CS(=O)(=O)c1cccc(-c2ccc3nccc(C(=O)NCC(=O)N4CCC[C@H]4C#N)c3c2)c1
	3.7 min	0.501 nM	O=C(NCC(=O)N1CCC[C@H]1C(=O)c1nc2ccccc2o1)c1ccnc2ccccc12
9.8	19 min		N#C[C@@H]1CC(F)(F)CN1C(=O)CNC(=O)c1cc[n+]([O-])c2ccc(OCCCN3CCN(C(=O)CN4CCN(CC(=O)O)CCN(CC(=O)O)CCN(CC(=O)O)CC4)CC3)cc12
8.6	57 min		O=C(O)CN1CCN(CC(=O)O)CCN(CC(=O)N2CCN(CCCOc3ccc4nccc(C(=O)NCC(=O)N5CC(F)(F)C[C@H]5C(=O)c5nc6ccccc6o5)c4c3)CC2)CCN(CC(=O)O)CC1
10.3	259.3 min		O=C(O)CN1CCN(CC(=O)O)CCN(CC(=O)NCCCNC(=O)c2ccc(-c3ccc4nccc(C(=O)NCC(=O)N5CCC[C@H]5C(=O)c5nc6ccccc6o5)c4c3)cc2)CCN(CC(=O)O)CC1
>11	>500 min		O=C(O)CN1CCN(CC(=O)O)CCN(CC(=O)N2CCN(CCNC(=O)c3cccc(-c4ccc5c(C(=O)NCC(=O)N6CCC[C@H]6C(=O)c6nc7ccccc7o6)ccnc5c4)c3)CC2)CCN(CC(=O)O)CC1 [drawing 352]
8.7	4.1 min		O=C(O)CN1CCN(CC(=O)O)CCN(CC(=O)N2CCN(CCNC(=O)c3ccc(-c4ccc5nccc(C(=O)NCC(=O)N6CCC[C@H]6C(=O)c6nc7ccccc7o6)c5c4)cn3)CC2)CCN(CC(=O)O)CC1 [drawing 361]
	125 min	0.0251 nM	CS(=O)(=O)c1ccc(-c2ccc3nccc(C(=O)NCC(=O)N4CC(F)(F)C[C@H]4C#N)c3c2)cc1
	12 min	0.158 nM	CS(=O)(=O)c1ccc(-c2ccc3nccc(C(=O)NCC(=O)N4CCC[C@H]4C#N)c3c2)cc1

Further lines, the compound ahead of its results:

SMILES	pKD (Biacore)	HL [min] (Biacore)	Kd
O=C(NCC(=O)N1CCC[C@H]1C(=O)c1nccs1)c1ccnc2ccccc12		0.3 min	12.6 nM
O=C(O)CN1CCN(CC(=O)O)CCN(CC(=O)N2CCN(CCCOc3ccc4nccc(C(=O)NCC(=O)N5C[C@@H](F)C[C@H]5C(=O)c5nc6ccccc6o5)c4c3)CC2)CCN(CC(=O)O)CC1 [drawing 358]	>11	>500 min	
N#C[C@@H]1CC(F)(F)CN1C(=O)CNC(=O)c1ccnc2ccc(-c3ccc(C(=O)NCCCNC(=O)CN4CCN(CC(=O)O)CCN(CC(=O)O)CCN(CC(=O)O)CC4)cc3)cc12	>11	110 min	
N#C[C@@H]1CC(F)(F)CN1C(=O)CNC(=O)c1ccnc2ccc(-c3ccc(S(=O)(=O)CCCNC(=O)CN4CCN(CC(=O)O)CCN(CC(=O)O)CCN(CC(=O)O)CC4)cc3)cc12	>11	>500 min	
N#C[C@@H]1CC(F)(F)CN1C(=O)CNC(=O)c1ccnc2ccc(-c3ccc(C(=O)NCCCNC(=O)CN4CCN(CC(=O)O)CCN(CC(=O)O)CCN(CC(=O)O)CC4)nc3)cc12	>11	>500 min	
CS(=O)(=O)c1ccc(-c2ccc3c(C(=O)NCC(=O)N4CCC[C@H]4C#N)ccnc3c2)cc1 [drawing 290]		4 min	0.631 nM
CC(C)(C)c1nnc(C(=O)[C@@H]2CCCN2C(=O)CNC(=O)c2ccnc3ccccc23)o1		0.4 min	2.51 nM
N#C[C@@H]1CC(F)(F)CN1C(=O)CNC(=O)c1ccnc2ccc(-c3ccc(C(=O)NCCN4CCN(C(=O)CN5CCN(CC(=O)O)CCN(CC(=O)O)CCN(CC(=O)O)CC5)CC4)cc3)cc12	>11	>500 min	
O=C(NCC(=O)N1CCC[C@H]1C(=O)c1ncco1)c1ccnc2ccccc12 [drawing 297]		0.6 min	2.51 nM
O=C(O)CN1CCN(CC(=O)O)CCN(CC(=O)NCCCNC(=O)c2ccc(-c3ccc4nccc(C(=O)NCC(=O)N5CCC[C@H]5B(O)O)c4c3)cc2)CCN(CC(=O)O)CC1	>11	>500 min	
CS(=O)(=O)c1cccc(-c2ccc3c(C(=O)NCC(=O)N4CCC[C@H]4C#N)ccnc3c2)c1		5.7 min	0.501 nM
O=C(O)CN1CCN(CC(=O)O)CCN(CC(=O)N2CCN(CCNC(=O)c3ccc(-c4ccc5c(C(=O)NCC(=O)N6CCC[C@H]6C(=O)c6nc7ccccc7o6)ccnc5c4)cc3)CC2)CCN(CC(=O)O)CC1 [drawing 355]	>11	>500 min	
CS(=O)(=O)c1cccc(-c2ccc3nccc(C(=O)NCC(=O)N4CC(F)(F)C[C@H]4C#N)c3c2)c1 [drawing 288]		29 min	0.0794 nM
N#C[C@@H]1CCCN1C(=O)CNC(=O)c1ccnc2ccc(-c3ccc(C(=O)NCCCNC(=O)CN4CCN(CC(=O)O)CCN(CC(=O)O)CCN(CC(=O)O)CC4)cc3)cc12	10.2	160 min	
CS(=O)(=O)c1cccc(-c2ccc3c(C(=O)NCC(=O)N4CC(F)(F)C[C@H]4C#N)ccnc3c2)c1 [drawing 289]		29.5 min	0.0794 nM
